Results on eleven compounds are retold here after patent publication US20250057890A1, “FUNCTIONAL FOOD CONTAINING BONITO-DERIVED EXTRACT FOR PREVENTING OR AMELIORATING NEUROPSYCHIATRIC DISORDERS” (MARUHACHI MURAMATSU, INC., priority 2022, published 2025).

Assay [1] concerns MG6 cells from mouse brain microglia. Put plainly: Anti-inflammatory action: TNF-α production in LPS-activated MG6 cells (ELISA). It counts as cell-based. The following applies: for anti-inflammatory activity: MG6 cells, LPS, fractions or single components; for anti-inflammatory action compared to katsuobushi extract: known components of katsuobushi, each in isolation. Here is the method:
MG6 cells from mouse brain microglia were purchased from the RIKEN BioResource Research Center (BRC), and the anti-inflammatory action of various extracts, including from katsuobushi, were assayed (see FIG. 1). First, a 96-well plate was seeded with the MG6 cells (5×10^3 cells/well·90 μL), and a culture was started in a CO2 incubator (37° C., CO2 level 5%). Next the various extracts were added to the wells after 0.5 hours, followed by the addition of lipopolysaccharide (LPS) 1 hour after that to activate the MG6 cells and induce an inflammatory state. After 6 hours, 10 μL of culture supernatant was collected from each well, after which 10 μL of a viable cell counting reagent (WST-8) was added to each well, and absorbance at 450 nm (reference wavelength 630 nm) was measured with a plate reader after 1 hour and 2 hours.
The previously collected culture supernatant was diluted 25-fold with a buffer, and the levels of TNF-α, a type of inflammatory cytokine, produced in the culture supernatant was measured via ELISA (using ELISA MAX™ Deluxe Set Mouth TNF-α, a kit manufactured by BioLegend). In the LPS addition test section, anti-inflammatory action was determined to be higher when the TNF-α production levels were more reduced through the prior addition of the various extracts, and lower the less said levels were reduced.
(In general: In an ELISA, binding on a coated surface is turned into a signal by an enzyme label.)

The subject of assay [2] is rat brain capillary endothelial cells (RBECs, primary cells). Put plainly: Protein expression of tight-junction-associated molecules (claudin-5 and occludin) in RBECs, western blot. Type of assay: cell-based. A general note: In western blotting, separated proteins are transferred to a membrane and probed.
Description: First, a 48-well plate was seeded with the RBECs (2×10^5 cells/well·440 μL), and a culture was started in a CO2 incubator (37° C., CO2 level 5%). Next, after 72 hours, the medium in each well was replaced with an evaluation medium prepared by adding the various extracts, and, 24 hours and 72 hours after that, RNA and protein were recovered from the cultured cells a NucleoSpin RNA/Protein kit (Takara Bio) according to the protocol of the kit. The extracted protein was evaluated via western blot, and DNA obtained by reverse transcription of the extracted RNA was evaluated via real-time PCR.
(§1) First, a 48-well plate was seeded with the RBECs (2×10^5 cells/well·440 μL), and a culture was started in a CO2 incubator (37° C., CO2 level 5%). […] The extracted protein was evaluated via western blot, and DNA obtained by reverse transcription of the extracted RNA was evaluated via real-time PCR (real-time PCR data not shown here).
as §1
Assay [3] deals with microglia in the hippocampus. The following applies: Liang et al., International Journal of Neuroscience, 2022; cited from earlier work.

Molecules are shown by their SMILES.

`Nc1ncnc2c1ncn2[C@@H]1O[C@H](COP(=O)(O)O)[C@@H](O)[C@H]1O` [AMP, adenosine 5′-monophosphate]: the anti-inflammatory activity entry in assay [1] was “anti-inflammatory activity was observed”.
With `Cn1cncc1C[C@H](NC(=O)CCN)C(=O)O` [anserine], the “anti-inflammatory action compared to katsuobushi extract” value in assay [1] is “none of these substances in isolation showed anti-inflammatory action comparable to katsuobushi extract”.
In the case of `C[N+](C)(C)CC(=O)O` [betaine], the “anti-inflammatory action compared to katsuobushi extract” value in assay [1] is reported as “none of these substances in isolation showed anti-inflammatory action comparable to katsuobushi extract”.
The same measure, in the same setting: in the case of `NCCC(=O)N[C@@H](Cc1cnc[nH]1)C(=O)O` [carnosine] it was “none of these substances in isolation showed anti-inflammatory action comparable to katsuobushi extract”; in that of `CN(CC(=O)O)C(=N)N` [creatine], “none of these substances in isolation showed anti-inflammatory action comparable to katsuobushi extract”.
For the compound `O=C(O)CO` [glycolic acid], in assay [1], the anti-inflammatory activity result is listed as “showed anti-inflammatory activity”.
In the case of `N[C@@H](Cc1c[nH]cn1)C(=O)O` [histidine], in assay [1], the “anti-inflammatory action compared to katsuobushi extract” value is on record as “none of these substances in isolation showed anti-inflammatory action comparable to katsuobushi extract”. Further, the claudin-5 protein expression entry in assay [2] (added concentration 0.836 mg/ml, after 24 hours, compared to serum-free medium) is “elevated”. Besides, the “expression of tight-junction-associated molecules (claudin-5 and occludin) at the genetic level and the protein level” value in assay [2] (rat cerebrovascular endothelial cells) is given as “elevated expression”.
`O=c1[nH]cnc2nc[nH]c12` [hypoxanthine]: the anti-inflammatory activity result in assay [1] is listed as “anti-inflammatory activity was observed”.
On to `CC(O)C(=O)O` (centres unmarked) [lactic acid], for which, in assay [1], the anti-inflammatory activity result is on record as “showed anti-inflammatory activity”. Further, the “anti-inflammatory activity (literature)” value in assay [3] is “already been reported to have anti-inflammatory activity”.
For `O=C[C@H](O)[C@H](O)[C@H](O)COP(=O)(O)O` [ribose 5-phosphate], the anti-inflammatory activity entry in assay [1] is given as “anti-inflammatory activity was observed”.
The same measure, in the same setting: in the case of `O=C(O)CCC(=O)O` [succinic acid] it was “anti-inflammatory activity was observed”.
